Source: patent US20240024273A1, “TOPICAL ADMINISTRATION OF 2-(DIETHYLAMINO)ETHYL 2-(4-ISOBUTYLPHENYL)PROPRIONATE FOR TREATMENT OF DISEASES” (TECHFIELDS PHARMA CO., LTD., priority 2020, published 2024)

System: Mild to Moderate Osteoarthritis of the Knee
Assay: Phase 2 study: WOMAC difficulty performing daily activities subscale score
Type: in vivo, human
Conditions: for Change of WOMAC Difficulty performing daily activities score from baseline (±SEM) / Percentage of improvement from baseline, WOMAC Difficulty performing daily activities score: all patients taken as active
From the text: This is a Phase 2, multicenter, randomized, double blind (within dose), placebo controlled, parallel group, proof of concept, and dose range finding study to evaluate the efficacy, safety, and PK of 2-(diethylamino)ethyl 2-(4-isobutylphenyl)propionate hydrochloride spray in adult subjects with clinically symptomatic mild to moderate OA of the knee. For subjects with bilateral knee pain, both knees will be treated, but the most symptomatic knee (i.e., the most painful knee as measured by the Western Ontario and McMaster University Osteoarthritis Index [WOMAC® 3.1] pain subscale score at Screening) will be designated as the target knee for efficacy analyses. For subjects with unilateral knee pain, only the symptomatic (target) knee will be treated.
After a Screening Period of up to 3 weeks and radiographic evaluation of the target knee joint space, a subject will be randomly assigned to 1 of 3 treatment groups in a 1:1:1 ratio with a 2:1 ratio of active:placebo within each treatment group (ie, 2 subjects to active treatment and 1 subject to placebo): • Group A: 8.75 mg 2-(diethylamino)ethyl 2-(4-isobutylphenyl)propionate/knee (2 sprays/knee, one spray to the medial surface and one spray to the lateral surface of the knee), twice daily (BID, approximately every 12 hours; n=50) or placebo (2 sprays/knee), BID (approximately every 12 hours; n=25) for a total of 4 sprays per knee per day; • Group B: 17.5 mg 2-(diethylamino)ethyl 2-(4-isobutylphenyl)propionate/knee (4 sprays/knee, one spray to the medial surface and one spray to the lateral surface of the knee, and one spray to front and one spray to the back of the knee), BID (approximately every 12 hours; n=50) or placebo (4 sprays/knee), BID (approximately every 12 hours; n=25) for a total of 8 sprays per knee per day; • Group C: 35 mg 2-(diethylamino)ethyl 2-(4-isobutylphenyl)propionate/knee (8 sprays/knee, each spray is to be applied to a different non-overlapping area around the knee, and the areas are to be uniformly distributed around the knee), BID (approximately every 12 hours; n=50) or placebo (8 sprays/knee), BID (approximately every 12 hours; n=25) for a total of 16 sprays per knee per day.
The VAS version of the WOMAC will be used for the Primary and Secondary Efficacy Endpoints. Efficacy endpoints will be assessed at Screening and Baseline (Day 1) and at the Week 2, Week 4, Week 8, and Week 12/EOS visits.
3.9.2. Secondary Efficacy Endpoints: • 1. Change from Baseline in the WOMAC (VAS) pain subscale score for the target knee at 2, 4, and 8 weeks of treatment; • 2. Change from Baseline in the WOMAC (VAS) stiffness subscale scores for the target knee and WOMAC (VAS) functional ability subscale scores at 2, 4, 8, and 12 weeks of treatment; • 3. Change from Baseline in the overall WOMAC (VAS) score at 2, 4, 8, and 12 weeks of treatment.
The Secondary Efficacy Endpoints, change from Baseline in the WOMAC subscale scores for pain, stiffness, and functional ability, and overall WOMAC score at 2, 4, 8, and 12 weeks of treatment, will be analyzed using the same methods as for the Primary Efficacy Endpoint.
To determine this, we assumed that all patients received 2-(diethylamino)ethyl 2-(4-isobutylphenyl)propionate, active drug treatment (i.e. all patients who received 2-(diethylamino)ethyl 2-(4-isobutylphenyl)propionate or placebo treatment for 12 weeks or mixed up treatment during the 12-week treatment, as 2-(diethylamino)ethyl 2-(4-isobutylphenyl)propionate-treated). Based on this assumption, that is, to treat this trial as an open-label study and that all patients received active treatment, we conducted efficacy analysis using top-line efficacy datasets prepared by CRO and the re-analysis results are presented in the following tables (Tables 29-47). […] (William G. Bensen, Justus J. Fiechtner, James 1. McMillen, et. al. Treatment of Osteoarthritis with Celecoxib. Mayo Clin Proc, November 1999. Vol 74, 1095-1105.)

[1] = 8.75 mg/knee (BID), Follow up (week 13, day 91)
[2] = 8.75 mg/knee (BID), Week 2 (day 14)
[3] = 8.75 mg/knee (BID), Week 4 (day 28)
[4] = 8.75 mg/knee (BID), Week 8 (day 56)
[5] = 8.75 mg/knee (BID), Week 12 (day 84)
[6] = 17.5 mg/knee (BID), Follow up (week 13, day 91)
[7] = 17.5 mg/knee (BID), Week 2 (day 14)
[8] = 17.5 mg/knee (BID), Week 4 (day 28)
[9] = 17.5 mg/knee (BID), Week 8 (day 56)
[10] = 17.5 mg/knee (BID), Week 12 (day 84)
[11] = 35 mg/knee (BID), Follow up (week 13, day 91)
[12] = 35 mg/knee (BID), Week 2 (day 14)
[13] = 35 mg/knee (BID), Week 4 (day 28)

CCN(CC)CCOC(=O)C(C)c1ccc(CC(C)C)cc1 (stereo not shown) [2-(diethylamino)ethyl 2-(4-isobutylphenyl)propionate]
Change of WOMAC Difficulty performing daily activities score from baseline (±SEM), adjusted by […] of the Testing Drug Amount [1]: −34.6(±5.8) mm
Percentage of improvement from baseline, WOMAC Difficulty performing daily activities score, adjusted by […] of the Testing Drug Amount [1]: −57.6%
Change of WOMAC Difficulty performing daily activities score from baseline (±SEM) [1]: −20.3(±3.4) mm
Percentage of improvement from baseline, WOMAC Difficulty performing daily activities score [1]: −33.6%
Change of WOMAC Difficulty performing daily activities score from baseline (±SEM), adjusted by […] of the Testing Drug Amount [2]: −18.2(±4.4) mm
Percentage of improvement from baseline, WOMAC Difficulty performing daily activities score, adjusted by […] of the Testing Drug Amount [2]: −30.0%
Change of WOMAC Difficulty performing daily activities score from baseline (±SEM) [2]: −10.6(±2.6) mm
Percentage of improvement from baseline, WOMAC Difficulty performing daily activities score [2]: −17.5%
Change of WOMAC Difficulty performing daily activities score from baseline (±SEM), adjusted by […] of the Testing Drug Amount [3]: −28.1(±5.1) mm
Percentage of improvement from baseline, WOMAC Difficulty performing daily activities score, adjusted by […] of the Testing Drug Amount [3]: −46.7%
Change of WOMAC Difficulty performing daily activities score from baseline (±SEM) [3]: −16.4(±3.0) mm
Percentage of improvement from baseline, WOMAC Difficulty performing daily activities score [3]: −27.2%
Change of WOMAC Difficulty performing daily activities score from baseline (±SEM), adjusted by […] of the Testing Drug Amount [4]: −33.1(±5.3) mm
Percentage of improvement from baseline, WOMAC Difficulty performing daily activities score, adjusted by […] of the Testing Drug Amount [4]: −54.9%
Change of WOMAC Difficulty performing daily activities score from baseline (±SEM) [4]: −19.3(±3.1) mm
Percentage of improvement from baseline, WOMAC Difficulty performing daily activities score [4]: −32.0%
Change of WOMAC Difficulty performing daily activities score from baseline (±SEM), adjusted by […] of the Testing Drug Amount [5]: −35.3(±5.8) mm
Percentage of improvement from baseline, WOMAC Difficulty performing daily activities score, adjusted by […] of the Testing Drug Amount [5]: −58.5%
Change of WOMAC Difficulty performing daily activities score from baseline (±SEM) [5]: −20.6(±3.4) mm
Percentage of improvement from baseline, WOMAC Difficulty performing daily activities score [5]: −34.1%
Change of WOMAC Difficulty performing daily activities score from baseline (±SEM), adjusted by […] of the Testing Drug Amount [6]: −39.6(±5.5) mm
Percentage of improvement from baseline, WOMAC Difficulty performing daily activities score, adjusted by […] of the Testing Drug Amount [6]: −62.4%
Change of WOMAC Difficulty performing daily activities score from baseline (±SEM) [6]: −23.1(±3.2) mm
Percentage of improvement from baseline, WOMAC Difficulty performing daily activities score [6]: −36.4%
Change of WOMAC Difficulty performing daily activities score from baseline (±SEM), adjusted by […] of the Testing Drug Amount [7]: −26.2(±4.1) mm
Percentage of improvement from baseline, WOMAC Difficulty performing daily activities score, adjusted by […] of the Testing Drug Amount [7]: −41.3%
Change of WOMAC Difficulty performing daily activities score from baseline (±SEM) [7]: −15.3(±2.4) mm
Percentage of improvement from baseline, WOMAC Difficulty performing daily activities score [7]: −24.1%
Change of WOMAC Difficulty performing daily activities score from baseline (±SEM), adjusted by […] of the Testing Drug Amount [8]: −36.2(±4.8) mm
Percentage of improvement from baseline, WOMAC Difficulty performing daily activities score, adjusted by […] of the Testing Drug Amount [8]: −57.1%
Percentage of improvement from baseline, WOMAC Difficulty performing daily activities score [8]: −33.3%
Change of WOMAC Difficulty performing daily activities score from baseline (±SEM), adjusted by […] of the Testing Drug Amount [9]: −41.3(±5.1) mm
Percentage of improvement from baseline, WOMAC Difficulty performing daily activities score, adjusted by […] of the Testing Drug Amount [9]: −65.2%
Change of WOMAC Difficulty performing daily activities score from baseline (±SEM) [9]: −24.1(±3.0) mm
Percentage of improvement from baseline, WOMAC Difficulty performing daily activities score [9]: −38.0%
Change of WOMAC Difficulty performing daily activities score from baseline (±SEM), adjusted by […] of the Testing Drug Amount [10]: −46.1(±5.5) mm
Percentage of improvement from baseline, WOMAC Difficulty performing daily activities score, adjusted by […] of the Testing Drug Amount [10]: −72.7%
Change of WOMAC Difficulty performing daily activities score from baseline (±SEM) [10]: −26.9(±3.2) mm
Percentage of improvement from baseline, WOMAC Difficulty performing daily activities score [10]: −42.4%
Change of WOMAC Difficulty performing daily activities score from baseline (±SEM), adjusted by […] of the Testing Drug Amount [11]: −35.0(±4.5) mm
Percentage of improvement from baseline, WOMAC Difficulty performing daily activities score, adjusted by […] of the Testing Drug Amount [11]: −60.9%
Change of WOMAC Difficulty performing daily activities score from baseline (±SEM) [11]: −20.4(±2.6) mm
Percentage of improvement from baseline, WOMAC Difficulty performing daily activities score [11]: −35.5%
Change of WOMAC Difficulty performing daily activities score from baseline (±SEM), adjusted by […] of the Testing Drug Amount [12]: −16.1(±3.3) mm
Percentage of improvement from baseline, WOMAC Difficulty performing daily activities score, adjusted by […] of the Testing Drug Amount [12]: −28.1%
Change of WOMAC Difficulty performing daily activities score from baseline (±SEM) [12]: −9.4(±1.9) mm
Percentage of improvement from baseline, WOMAC Difficulty performing daily activities score [12]: −16.4%
Change of WOMAC Difficulty performing daily activities score from baseline (±SEM), adjusted by […] of the Testing Drug Amount [13]: −23.0(±3.9) mm
Percentage of improvement from baseline, WOMAC Difficulty performing daily activities score, adjusted by […] of the Testing Drug Amount [13]: −40.0%
Change of WOMAC Difficulty performing daily activities score from baseline (±SEM) [13]: −13.4(±2.3) mm
Percentage of improvement from baseline, WOMAC Difficulty performing daily activities score [13]: −23.3%
Change of WOMAC Difficulty performing daily activities score from baseline (±SEM), adjusted by […] of the Testing Drug Amount (35 mg/knee (BID), Week 8 (day 56)): −31.6(±4.5) mm
